From ChEMBL document CHEMBL5226379, “Hypouricemic Actions of the Pericarp of Mangosteen in Vitro and in Vivo” (J Nat Prod, 2023)
The source made the active and inactive calls. No cut-off for these calls is given here.

Tests used:
[1] = molecular target: T1, Xanthine dehydrogenase/oxidase (Homo sapiens, UniProt P47989); assay: Inhibition of XOD (unknown origin) using xanthine as substrate assessed as inhibition of uric acid generation at 150 mg/L preincubated for 15 mins followed by xanthine addition and measured by spectrophotometric analysis relative to control
T1 sequence (P47989 whole entry): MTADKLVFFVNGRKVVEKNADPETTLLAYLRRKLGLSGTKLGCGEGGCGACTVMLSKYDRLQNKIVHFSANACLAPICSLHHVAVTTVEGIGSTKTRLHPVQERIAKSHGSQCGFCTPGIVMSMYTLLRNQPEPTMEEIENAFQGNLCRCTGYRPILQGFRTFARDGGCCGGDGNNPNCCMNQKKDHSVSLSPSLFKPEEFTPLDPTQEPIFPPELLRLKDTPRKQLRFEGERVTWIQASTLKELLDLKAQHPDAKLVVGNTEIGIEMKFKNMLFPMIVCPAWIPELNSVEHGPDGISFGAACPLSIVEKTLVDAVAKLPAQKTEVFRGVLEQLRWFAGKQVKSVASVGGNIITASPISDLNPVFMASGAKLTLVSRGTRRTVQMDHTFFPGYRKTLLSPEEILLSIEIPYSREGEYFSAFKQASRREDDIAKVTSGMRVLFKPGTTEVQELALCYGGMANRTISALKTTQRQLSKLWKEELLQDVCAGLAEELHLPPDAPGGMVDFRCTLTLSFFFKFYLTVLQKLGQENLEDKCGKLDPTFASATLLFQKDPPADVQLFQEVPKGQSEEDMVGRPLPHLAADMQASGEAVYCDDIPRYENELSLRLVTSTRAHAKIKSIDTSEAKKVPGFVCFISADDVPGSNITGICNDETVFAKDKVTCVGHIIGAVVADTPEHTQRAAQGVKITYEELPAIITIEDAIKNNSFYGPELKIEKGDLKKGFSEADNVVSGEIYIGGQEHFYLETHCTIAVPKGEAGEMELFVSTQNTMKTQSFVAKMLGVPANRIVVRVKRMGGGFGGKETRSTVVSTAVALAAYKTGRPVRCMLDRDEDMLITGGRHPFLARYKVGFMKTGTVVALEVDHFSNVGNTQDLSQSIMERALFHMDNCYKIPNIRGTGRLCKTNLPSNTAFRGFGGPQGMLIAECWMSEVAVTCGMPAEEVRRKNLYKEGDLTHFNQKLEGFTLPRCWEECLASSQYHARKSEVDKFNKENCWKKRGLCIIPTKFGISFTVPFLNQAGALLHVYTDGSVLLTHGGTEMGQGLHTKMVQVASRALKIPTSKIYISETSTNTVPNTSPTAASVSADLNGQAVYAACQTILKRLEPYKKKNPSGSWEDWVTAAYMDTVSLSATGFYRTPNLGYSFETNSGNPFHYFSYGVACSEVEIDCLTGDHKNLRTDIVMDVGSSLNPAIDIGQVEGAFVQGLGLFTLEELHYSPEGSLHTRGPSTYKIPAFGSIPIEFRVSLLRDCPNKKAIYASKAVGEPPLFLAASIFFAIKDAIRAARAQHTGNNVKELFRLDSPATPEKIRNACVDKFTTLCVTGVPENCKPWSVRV

Rattus norvegicus [2] = assay: Anti-hyperuricemic activity against potassium oxonate-induced hyperuricemic Sprague-Dawley rat model assessed as serum urea nitrogen level at 1 mg/kg, po pre-administered via gavage twice daily for 5 times followed by potassium oxonate injection for 1 hrs prior to last dose and measured after 3 hrs; assay type: functional; conditions: time 123 hrs
Rattus norvegicus [3] = assay: Anti-hyperuricemic activity against potassium oxonate-induced hyperuricemic Sprague-Dawley rat model assessed as increase in urinary urate level at 2 mg/kg, po pre-administered via gavage twice daily for 5 times followed by potassium oxonate injection for 1 hrs prior to last dose and measured after 3 hrs relative to control; assay type: functional; conditions: time 123 hrs
[4] = Toxicity in Kunming mouse assessed as decrease in serum uric acid level upto 250 mg/kg; assay type: organism-based; conditions: in vivo
Mus musculus [5] = assay: Hypouricemic activity in potassium oxonate-induced hyperuricemic Kunming mouse model assessed as decrease in serum uric acid level at 4 mg/kg, IG pre-administered with potassium oxonate for one hour followed by compound treatment and measured after 2 hrs by phosphotungstic acid method relative to control; assay type: functional; parameters: scale not given: the % may be the effect or the level left
Mus musculus [6] = assay: Hypouricemic activity in potassium oxonate-induced hyperuricemic Kunming mouse model assessed as decrease in serum uric acid level at 5 mg/kg, IG pre-administered via gavage twice daily for 5 times followed by potassium oxonate injection for 1 hrs prior to last dose by phosphotungstic acid method; assay type: functional; conditions: time 5.0 day
[7] = molecular target: T1, Xanthine dehydrogenase/oxidase; assay: Inhibition of XOD (unknown origin) using xanthine as substrate assessed as inhibition of uric acid generation at 100 mg/L preincubated for 15 mins followed by xanthine addition and measured by spectrophotometric analysis relative to control
Rattus norvegicus [8] = assay: (§1) Anti-hyperuricemic activity against potassium oxonate-induced hyperuricemic Sprague-Dawley rat model assessed as urinary creatinine level at 4 mg/kg, po pre-administered via gavage twice daily for 5 times followed by potassium oxonate injection for 1 hrs prior to last dose and measured after 3 hrs; assay type: functional; conditions: time 123 hrs
Rattus norvegicus [9] = assay: (§2) Anti-hyperuricemic activity against potassium oxonate-induced hyperuricemic Sprague-Dawley rat model assessed as urinary urate level at 1 mg/kg, po pre-administered via gavage twice daily for 5 times followed by potassium oxonate injection for 1 hrs prior to last dose and measured after 3 hrs; assay type: functional; conditions: time 123 hrs
Mus musculus [10] = assay: Anti-hyperouricemic activity in uric acid-induced hyperuricemic Kunming mouse model assessed as decrease in serum uric acid level at 4 mg/kg, IG pre-administered with uric acid for 30 mins followed by compound treatment and measured after 2 hrs by phosphotungstic acid method; assay type: functional, organism-based
Rattus norvegicus [11] = assay: as §2, with “as excretion of” for “as urinary”, “urate per volume of glomerular filtration measured per body surface area of 0.0311 m2” for “urate level”, “at 4” for “at 1”; assay type: functional; conditions: time 123 hrs
Rattus norvegicus [12] = assay: (§3) Anti-hyperuricemic activity against potassium oxonate-induced hyperuricemic Sprague-Dawley rat model assessed as ratio of urinary urate to urinary creatinine at 2 mg/kg, po pre-administered via gavage twice daily for 5 times followed by potassium oxonate injection for 1 hrs prior to last dose and measured after 3 hrs; assay type: functional; conditions: time 123 hrs
Rattus norvegicus [13] = assay: as §1, with “clearance of” for “urinary”, “measured per body surface area of 0.0311 m2” for “level”; assay type: functional; conditions: time 123 hrs
Rattus norvegicus [14] = assay: (§4) Anti-hyperuricemic activity against potassium oxonate-induced hyperuricemic Sprague-Dawley rat model assessed as urinary urate at 1 mg/kg, po pre-administered via gavage twice daily for 5 times followed by potassium oxonate injection for 1 hrs prior to last dose and measured after 3 hrs; assay type: functional; conditions: time 123 hrs
Rattus norvegicus [15] = assay: as §4, with “excretion of” for “urinary”, “urate per volume of glomerular filtration measured per body surface area of 0.0311 m2” for “urate”; assay type: functional; conditions: time 123 hrs
Rattus norvegicus [16] = assay: Anti-hyperuricemic activity against potassium oxonate-induced hyperuricemic Sprague-Dawley rat model assessed as serum urate level at 2 mg/kg, po pre-administered via gavage twice daily for 5 times followed by potassium oxonate injection for 1 hrs prior to last dose and measured after 3 hrs; assay type: functional; conditions: time 123 hrs
Mus musculus [17] = assay: Hypouricemic activity in potassium oxonate-induced hyperuricemic Kunming mouse model assessed as decrease in serum XOD level at 1 to 4 mg/kg, IG pre-administered via gavage twice daily for 5 times followed by potassium oxonate injection for 1 hrs prior to last dose; assay type: functional, organism-based; conditions: dose 1-4 mg/kg, time 5.0 day
Rattus norvegicus [18] = assay: as §3, with “1” for “2”; assay type: functional; conditions: time 123 hrs
Rattus norvegicus [19] = assay: Anti-hyperuricemic activity against potassium oxonate-induced hyperuricemic Sprague-Dawley rat model assessed as urine volume at 2 mg/kg, po pre-administered via gavage twice daily for 5 times followed by potassium oxonate injection for 1 hrs prior to last dose and measured after 3 hrs; assay type: functional; conditions: time 123 hrs
Rattus norvegicus [20] = assay: Anti-hyperuricemic activity against potassium oxonate-induced hyperuricemic Sprague-Dawley rat model assessed as urinary urate at 2 mg/kg, po pre-administered via gavage twice daily for 5 times followed by potassium oxonate injection for 1 hrs prior to last dose and measured after 3 hrs; assay type: functional; conditions: time 123 hrs
Mus musculus [21] = assay: Anti-hyperuricemic activity against uric acid-induced hyperuricemic Kunming mouse model assessed as decrease in GLUT9 protein level in kidney at 2 to 8 mg/kg, pre-administered with uric acid for 3.5 days followed by compound administration via gavage twice a day for seven times by ELISA analysis; assay type: functional, organism-based; conditions: dose 2-8 mg/kg, time 7.0 day
Rattus norvegicus [22] = assay: Anti-hyperuricemic activity against potassium oxonate-induced hyperuricemic Sprague-Dawley rat model assessed as serum urea nitrogen level at 4 mg/kg, po pre-administered via gavage twice daily for 5 times followed by potassium oxonate injection for 1 hrs prior to last dose and measured after 3 hrs; assay type: functional; conditions: time 123 hrs
[23] = molecular target: T1, Xanthine dehydrogenase/oxidase; assay: Inhibition of XOD (unknown origin) using xanthine as substrate assessed as inhibition of uric acid generation at 50 mg/L preincubated for 15 mins followed by xanthine addition and measured by spectrophotometric analysis relative to control
Rattus norvegicus [24] = assay: as §4, with “as clearance of” for “as urinary”, “urate measured per body surface area of 0.0311 m2” for “urate”, “at 4” for “at 1”; assay type: functional; conditions: time 123 hrs
[25] = molecular target: T2, Solute carrier family 22 member 12 (Homo sapiens, UniProt Q96S37); assay: Inhibition of human URAT1-mediated [8-14C]uric acid uptake expressed in HEK293 cells using [8-14C]uric acid as substrate by liquid scintillation counter analysis; assay type: cell-based
T2 sequence (Q96S37 whole entry): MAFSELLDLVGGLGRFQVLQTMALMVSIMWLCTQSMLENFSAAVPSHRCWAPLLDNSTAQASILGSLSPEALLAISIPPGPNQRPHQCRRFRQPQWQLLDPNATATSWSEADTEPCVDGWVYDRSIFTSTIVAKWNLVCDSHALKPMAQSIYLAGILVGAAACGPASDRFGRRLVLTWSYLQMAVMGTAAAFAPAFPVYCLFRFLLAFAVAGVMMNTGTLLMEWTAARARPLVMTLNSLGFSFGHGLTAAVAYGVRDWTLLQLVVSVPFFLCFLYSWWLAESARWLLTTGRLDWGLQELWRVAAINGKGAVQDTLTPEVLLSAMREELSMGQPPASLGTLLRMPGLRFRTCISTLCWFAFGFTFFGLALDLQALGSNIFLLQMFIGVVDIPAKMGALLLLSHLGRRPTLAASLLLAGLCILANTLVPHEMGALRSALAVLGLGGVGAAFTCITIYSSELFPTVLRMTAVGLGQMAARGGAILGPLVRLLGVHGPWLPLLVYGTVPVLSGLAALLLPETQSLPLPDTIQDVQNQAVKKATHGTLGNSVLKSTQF

`COc1c(O)cc2oc3cc(O)c(CC=C(C)C)c(O)c3c(=O)c2c1CC=C(C)C` [MANGOSTIN] showed an inhibition at 150 µg/mL [1] of 1.4%, an Activity (Rattus norvegicus [2]) of 10.7 mmol/L and an Activity (Rattus norvegicus [3]) of 42%. The Activity [4] was “Non-Toxic”, the Activity (Mus musculus [5]) was 63% and the Activity (Mus musculus [6]) was “Active”. For the same molecule, the inhibition at 100 µg/mL [7] was 1.4%, the Activity (Rattus norvegicus [8]) was 0.9 mmol/L and the Activity (Rattus norvegicus [9]) was 2.4 mmol/L. The Activity (Mus musculus [10]) was “Active”, the Activity (Rattus norvegicus [11]) was 5.3 µmol/L and the Ratio (Rattus norvegicus [12]) was 3.2. For the same molecule, the Activity (Rattus norvegicus [13]) was 18.6 mL/min, the Activity (Rattus norvegicus [14]) was 501 µmol and the Activity (Rattus norvegicus [15]) was 4.9 µmol/L. For the same molecule, the Activity (Rattus norvegicus [16]) was 236 µmol/L, the Activity (Mus musculus [17]) was “inactive” and the Ratio (Rattus norvegicus [18]) was 2.7. For the same molecule, the Activity (Rattus norvegicus [19]) was 5.6 mL, the Activity (Rattus norvegicus [20]) was 465 µmol and the Activity (Mus musculus [21]) was “Active”. The Activity (Rattus norvegicus [22]) was 10.1 mmol/L, the inhibition at 50 µg/mL [23] was 4.9% and the Activity (Rattus norvegicus [24]) was 14 mL/min. It also gave an IC50 [25] of 58.9 µM.
